In patent US20230295197A1, “STAT5 and STAT6 Degraders and Uses Thereof” (REGENTS OF THE UNIVERSITY OF MICHICAN, priority 2022, published 2023):
Like-named read-outs stand apart in the source and are kept apart here.

What was measured:
[1] = system: STAT5; test: Immunoblotting (Western blot) analysis of STAT5 degradation efficiency of degraders in treated cells; assay type: cell-based
Method in brief: (§1)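 About 1 million cells per point, grown in 10% FBS medium at 37 °C/5% CO2, were exposed to compound at the indicated concentrations and times, then lysed in RIPA buffer with protease and phosphatase inhibitors. Equal protein (20-40 μg) was resolved by SDS-PAGE, blotted to PVDF, and probed with anti-STAT5, anti-STAT6 and anti-GAPDH antibodies.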

[2] = target: T1, STAT6 (Homo sapiens, UniProt P42226); test: Immunoblotting (Western blot) analysis of STAT6 degradation efficiency of degraders in treated cells; assay type: cell-based
T1 construct: endogenous in cells; host or cells: MOLM-16, KU-812, SKNO1, MB231, L1236
T1 sequence (P42226 1-847): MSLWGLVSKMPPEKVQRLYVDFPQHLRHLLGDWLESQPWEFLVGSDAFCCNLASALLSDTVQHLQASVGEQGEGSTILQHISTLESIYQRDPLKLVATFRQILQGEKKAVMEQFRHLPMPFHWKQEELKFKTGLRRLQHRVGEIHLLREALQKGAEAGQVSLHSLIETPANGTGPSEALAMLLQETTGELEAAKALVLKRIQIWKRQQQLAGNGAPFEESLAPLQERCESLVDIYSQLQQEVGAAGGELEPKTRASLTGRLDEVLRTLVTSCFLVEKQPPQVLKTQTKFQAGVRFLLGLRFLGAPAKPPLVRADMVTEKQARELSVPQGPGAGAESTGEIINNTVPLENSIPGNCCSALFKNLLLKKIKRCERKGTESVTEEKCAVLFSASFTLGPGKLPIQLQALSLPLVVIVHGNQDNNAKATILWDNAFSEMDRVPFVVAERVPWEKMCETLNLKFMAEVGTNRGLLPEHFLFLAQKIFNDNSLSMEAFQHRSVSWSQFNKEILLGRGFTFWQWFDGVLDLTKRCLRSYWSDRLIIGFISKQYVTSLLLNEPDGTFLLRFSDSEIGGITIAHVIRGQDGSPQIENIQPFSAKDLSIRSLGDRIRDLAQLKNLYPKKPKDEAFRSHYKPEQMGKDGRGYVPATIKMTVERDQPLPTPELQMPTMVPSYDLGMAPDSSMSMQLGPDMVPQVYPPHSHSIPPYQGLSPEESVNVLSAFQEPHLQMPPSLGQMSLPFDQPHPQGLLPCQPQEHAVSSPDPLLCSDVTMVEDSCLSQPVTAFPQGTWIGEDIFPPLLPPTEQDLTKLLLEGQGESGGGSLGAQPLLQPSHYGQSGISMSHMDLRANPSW
Method in brief: as §1

[3] = MOLM-16 cells, numeric bound, read-out: DC50 S5 MOLM-16
[4] = MOLM-16 cells, numeric bound, read-out: DC50 S6 MOLM-16
[5] = KU-812 cells, read-out: DC50 S5 KU-812
[6] = SKNO1 cells, read-out: DC50 S5 SKNO1

Compound | DC50 [1, 3] [nM] | DC50 [2, 4] [nM] | DC50 [1, 5] [nM] | DC50 [1, 6] [nM] | DC50 ([2]; MOLM-16 cells, class symbols, read-out: DC50 S6 MOLM-16) [nM] | DC50 ([2]; L1236 cells, read-out: DC50 S6 L1236) [nM] | DC50 ([2]; MB231 cells, read-out: DC50 S6 MB231) [nM] | DC50 ([1]; MOLM-16 cells, class symbols, read-out: DC50 S5 MOLM-16) [nM]
Cc1ncsc1-c1ccc([C@H](CC(=O)NCCOCCOCCOCCC(=O)N[C@@H]2C[C@@H](C(=O)Nc3ncc(-c4ccccc4)s3)N(C(=O)[C@@H](NC(=O)c3cc4cc(C(F)(F)P(=O)(O)O)ccc4s3)C(C)(C)C)C2)NC(=O)[C@@H]2C[C@@H](O)CN2C(=O)[C@@H](NC(=O)C2(F)CC2)C(C)(C)C)cc1 [Compound 582, (difluoro(2-(((S)-1-((2S,4R)-4-((S)-1-((2S,4R)-1-((S)-2-(1-fluorocyclopropane-1-carboxamido)-3,3-dimethylbutanoyl)-4-hydroxypyrrolidin-2-yl)-3-(4-(4-methylthiazol-5-yl)phenyl)-1,5-dioxo-9,12,15-trioxa-2,6-diazaoctadecan-18-amido)-2-((5-phenylthiazol-2-yl)carbamoyl)pyrrolidin-1-yl)-3,3-dimethyl-1-oxobutan-2-yl)carbamoyl)benzo[b]thiophen-5-yl)methyl)phosphonic acid] | > 300 | > 300 | – | – | – | – | – | –
CC(C)(C)[C@H](NC(=O)c1cc2cc(C(F)(F)P(=O)(O)O)ccc2s1)C(=O)N1CCC[C@H]1C(=O)N(CCC(=O)NCCC#Cc1cccc2c1CN(C1CCC(=O)NC1=O)C2=O)c1ccc(Br)cc1 (stereo partly drawn) [Compound 614, ((2-(((2S)-1-((2S)-2-((4-bromophenyl)(3-((4-(2-(2,6-dioxopiperidin-3-yl)-1-oxoisoindolin-4-yl)but-3-yn-1-yl)amino)-3-oxopropyl)carbamoyl)pyrrolidin-1-yl)-3,3-dimethyl-1-oxobutan-2-yl)carbamoyl)benzo[b]thiophen-5-yl)difluoromethyl)phosphonic acid] | > 300 | – | > 10000 | > 10000 | > 10000 | – | – | –
CN(C(=O)[C@@H]1C[C@@H](OCC(=O)NCCCCCC#Cc2cccc3c2CN(C2CCC(=O)NC2=O)C3=O)CN1C(=O)[C@@H](NC(=O)c1cc2cc(C(F)(F)P(=O)(O)O)ccc2s1)C(C)(C)C)c1ccc(Br)cc1 (stereo partly drawn) [Compound 412, ((2-(((2S)-1-((2S,4R)-2-((4-bromophenyl)(methyl)carbamoyl)-4-(2-((7-(2-(2,6-dioxopiperidin-3-yl)-1-oxoisoindolin-4-yl)hept-6-yn-1-yl)amino)-2-oxoethoxy)pyrrolidin-1-yl)-3,3-dimethyl-1-oxobutan-2-yl)carbamoyl)benzo[b]thiophen-5-yl)difluoromethyl)phosphonic acid] | – | – | – | > 10000 | – | > 10000 | > 10000 | –
Cc1ncsc1-c1ccc([C@H](CC(=O)NCCCCCCC(=O)N[C@@H]2C[C@@H](C(=O)Nc3ncc(-c4ccccc4)s3)N(C(=O)[C@@H](NC(=O)c3cc4cc(C(F)(F)P(=O)(O)O)ccc4s3)C(C)(C)C)C2)NC(=O)[C@@H]2C[C@@H](O)CN2C(=O)[C@@H](NC(=O)C2(F)CC2)C(C)(C)C)cc1 [Compound 576, (difluoro(2-(((S)-1-((2S,4R)-4-(7-((S)-3-((2S,4R)-1-((S)-2-(1-fluorocyclopropane-1-carboxamido)-3,3-dimethylbutanoyl)-4-hydroxypyrrolidine-2-carboxamido)-3-(4-(4-methylthiazol-5-yl)phenyl)propanamido)heptanamido)-2-((5-phenylthiazol-2-yl)carbamoyl)pyrrolidin-1-yl)-3,3-dimethyl-1-oxobutan-2-yl)carbamoyl)benzo[b]thiophen-5-yl)methyl)phosphonic acid] | > 300 | > 300 | – | – | – | – | – | –
CC(C)(C)[C@H](NC(=O)c1cc2cc(C(F)(F)P(=O)(O)O)ccc2s1)C(=O)N1CCC[C@H]1C(=O)N(CCC(=O)NCCCC#Cc1cccc2c1CN(C1CCC(=O)NC1=O)C2=O)c1ccc(-c2nccs2)cc1 (stereo partly drawn) [Compound 655, ((2-(((2S)-1-((2S)-2-((3-((5-(2-(2,6-dioxopiperidin-3-yl)-1-oxoisoindolin-4-yl)pent-4-yn-1-yl)amino)-3-oxopropyl)(4-(thiazol-2-yl)phenyl)carbamoyl)pyrrolidin-1-yl)-3,3-dimethyl-1-oxobutan-2-yl)carbamoyl)benzo[b]thiophen-5-yl)difluoromethyl)phosphonic acid] | – | > 300 | 100 to 1000 | 100 to 1000 | – | – | – | < 100
CC(C)(C)[C@H](NC(=O)c1cc2cc(C(F)(F)P(=O)(O)O)ccc2s1)C(=O)N1C[C@H](OCCCCCCC#Cc2cccc3c2CN(C2CCC(=O)NC2=O)C3=O)C[C@H]1C(=O)Nc1ncc(-c2ccccc2)s1 (stereo partly drawn) [Compound 606, ((2-(((2S)-1-((2S,4R)-4-((8-(2-(2,6-dioxopiperidin-3-yl)-1-oxoisoindolin-4-yl)oct-7-yn-1-yl)oxy)-2-((5-phenylthiazol-2-yl)carbamoyl)pyrrolidin-1-yl)-3,3-dimethyl-1-oxobutan-2-yl)carbamoyl)benzo[b]thiophen-5-yl)difluoromethyl)phosphonic acid] | > 300 | > 300 | – | – | – | – | – | –
CC(C)(C)[C@H](NC(=O)c1cc2cc(C(F)(F)P(=O)(O)O)ccc2s1)C(=O)N1CCC[C@H]1C(=O)N(CCC(=O)N1CC(CCC#Cc2cccc3c2CN(C2CCC(=O)NC2=O)C3=O)C1)c1ccc(Br)cc1 (stereo partly drawn) [Compound 666, ((2-(((2S)-1-((2S)-2-((4-bromophenyl)(3-(3-(4-(2-(2,6-dioxopiperidin-3-yl)-1-oxoisoindolin-4-yl)but-3-yn-1-yl)azetidin-1-yl)-3-oxopropyl)carbamoyl)pyrrolidin-1-yl)-3,3-dimethyl-1-oxobutan-2-yl)carbamoyl)benzo[b]thiophen-5-yl)difluoromethyl)phosphonic acid] | > 300 | > 300 | 1000 to 10000 | 1000 to 10000 | – | – | – | –
Cc1ncsc1-c1ccc([C@H](CC(=O)NCCCCCCCCCC(=O)N[C@@H]2C[C@@H](C(=O)Nc3ncc(-c4ccccc4)s3)N(C(=O)[C@@H](NC(=O)c3cc4cc(C(F)(F)P(=O)(O)O)ccc4s3)C(C)(C)C)C2)NC(=O)[C@@H]2C[C@@H](O)CN2C(=O)[C@@H](NC(=O)C2(F)CC2)C(C)(C)C)cc1 [Compound 579, (difluoro(2-(((S)-1-((2S,4R)-4-(10-((S)-3-((2S,4R)-1-((S)-2-(1-fluorocyclopropane-1-carboxamido)-3,3-dimethylbutanoyl)-4-hydroxypyrrolidine-2-carboxamido)-3-(4-(4-methylthiazol-5-yl)phenyl)propanamido)decanamido)-2-((5-phenylthiazol-2-yl)carbamoyl)pyrrolidin-1-yl)-3,3-dimethyl-1-oxobutan-2-yl)carbamoyl)benzo[b]thiophen-5-yl)methyl)phosphonic acid] | > 300 | > 300 | – | – | – | – | – | –
CC(C)(C)[C@H](NC(=O)c1cc2cc(C(F)(F)P(=O)(O)O)ccc2s1)C(=O)N1CCC[C@H]1C(=O)N(CCC(=O)NCCCC#Cc1cccc2c1CN(C1CCC(=O)NC1=O)C2=O)c1cccc2sccc12 (stereo partly drawn) [Compound 660, ((2-(((2S)-1-((2S)-2-(benzo[b]thiophen-4-yl(3-((5-(2-(2,6-dioxopiperidin-3-yl)-1-oxoisoindolin-4-yl)pent-4-yn-1-yl)amino)-3-oxopropyl)carbamoyl)pyrrolidin-1-yl)-3,3-dimethyl-1-oxobutan-2-yl)carbamoyl)benzo[b]thiophen-5-yl)difluoromethyl)phosphonic acid] | > 300 | > 300 | – | 1000 to 10000 | – | – | – | –
Cc1ncsc1-c1ccc([C@H](CC(=O)NCCOCCOCCC(=O)N[C@@H]2C[C@@H](C(=O)Nc3ncc(-c4ccccc4)s3)N(C(=O)[C@@H](NC(=O)c3cc4cc(C(F)(F)P(=O)(O)O)ccc4s3)C(C)(C)C)C2)NC(=O)[C@@H]2C[C@@H](O)CN2C(=O)[C@@H](NC(=O)C2(F)CC2)C(C)(C)C)cc1 [Compound 581, (difluoro(2-(((S)-1-((2S,4R)-4-((S)-1-((2S,4R)-1-((S)-2-(1-fluorocyclopropane-1-carboxamido)-3,3-dimethylbutanoyl)-4-hydroxypyrrolidin-2-yl)-3-(4-(4-methylthiazol-5-yl)phenyl)-1,5-dioxo-9,12-dioxa-2,6-diazapentadecan-15-amido)-2-((5-phenylthiazol-2-yl)carbamoyl)pyrrolidin-1-yl)-3,3-dimethyl-1-oxobutan-2-yl)carbamoyl)benzo[b]thiophen-5-yl)methyl)phosphonic acid] | > 300 | > 300 | – | – | – | – | – | –
